# Test results published in patent publication US20060122099A1, “Method for infusing insulin to a subject to improve impaired total body tissue glucose processing” (priority 2004, published 2006).
# Legend:
# [1] = Circulating glucose by finger stick during insulin pulse treatments; format: in vivo, human; details: during the first treatment, with ingested carbohydrates; all examples
# Description: In prototype testing, a commercially available LIFESCAN ONETOUCH ULTRA glucose meter was used to measure the subject's baseline and subsequent circulating blood glucose level. The glucose meter was calibrated according to the manufacturer's recommendations. A blood sampler test strip was then inserted into the blood glucose meter as directed by the manufacturer. The glucose meter automatically turned on upon proper insertion of the test strip into the meter. This commercially available glucose meter utilized a lancet to prick the subject's fingertip or arm. After pricking the skin, the user gently massages the area to help form a round drop of blood (about one micro-liter in volume) on the skin surface. The subject then caused the blood sample to be absorbed onto the blood sampler test strip per the manufacturer's recommended procedure. If adequate blood was absorbed by the blood sampler test strip, the blood glucose level was automatically calculated and shown on the instrument's display panel in approximately 5 seconds. […]
# For all of the above listed examples, after the initial few days of treatment, the patients underwent treatment once a week, each treatment day consisting of three infusions of insulin accompanied by ingestion of carbohydrates. […] The patients' circulating glucose were measured once every thirty minutes by the finger stick method currently used by most diabetic patients. […]
# [2] = stated without source; cited from earlier work
substance,measurement,setting,value
insulin,rise in circulating glucose levels,[1],100 to 150 mg/dL
same,half-life,[2],5 min
